Reference: patent US20230031406A1, “COMPOUNDS AND COMPOSITIONS FOR TREATING CONDITIONS ASSOCIATED WITH NLRP ACTIVITY” (Novartis AG, priority 2018, published 2023)
Read-outs that look alike come from different tables or passages of the source.

Test system: PMA-differentiated THP-1 cells
Test: IL-1β production in PMA-differentiated THP-1 cells stimulated with gramicidin (hTHP-1 assay containing 2% fetal bovine serum; Procedures 1 and 2)
Format: cell-based, human
Settings: 2% fetal bovine serum
In short: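 THP-1 cells were differentiated with PMA (20 ng/ml, 16-18 h), detached, and plated at 50,000 cells/well in RPMI 1640 with 2% FBS. They were pre-treated with compound (0.0017–100 μM, 0.37% DMSO) for 1 h, then stimulated with gramicidin (5 μM) for 2 h. Supernatant IL-1β was measured by HTRF.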

[1] = Homo sapiens, THP-1, Table B1, numeric bounds, read-out: Average IC50 of compounds in hTHP-1 assay: hTHP-1 IC50
[2] = Homo sapiens, THP-1, Table B3, hTHP-1 assay, class symbols, read-out: IC50
[3] = Homo sapiens, THP-1, Table B2, class symbols, read-out: hTHP-1 IC50
[4] = Homo sapiens, THP-1, Table B4, class symbols, read-out: hTHP-1 IC50
[5] = Table B2, class symbols, read-out: hTHP-1 IC50
[6] = Homo sapiens, THP-1, Table B1, class symbols, read-out: Average IC50 of compounds in hTHP-1 assay: hTHP-1 IC50
[7] = Table B3, hTHP-1 assay, class symbols, read-out: IC50

## CC(C)(O)c1ccc(S(N)(=O)=NC(=O)Nc2c3c(nc4c2CCC4)CCC3)cn1 (stereo not drawn) [Compound 156, N′-((1,2,3,5,6,7-hexahydrodicyclopenta[b,e]pyridin-8-yl)carbamoyl)-6-(2-hydroxypropan-2-yl)pyridine-3-sulfonimidamide]
[1]
  IC50: > 30 µM

## CCOC(=O)c1nc2c(c(NC(=O)N=S(=O)(N[Si](C)(C)C(C)(C)C)c3cnc(C(C)(C)O)s3)c1C)CCC2 (stereo not drawn) [Example 613, Ethyl 4-(3-(((tert-butyldimethylsilyl)amino)(2-(2-hydroxypropan-2-yl)thiazol-5-yl)(oxo)-l6-sulfaneylidene)ureido)-3-methyl-6,7-dihydro-5H-cyclopenta[b]pyridine-2-carboxylate]
Homo sapiens, THP-1, Table B3, hTHP-1 assay, numeric values, read-out: IC50
  IC50: > 30 µM

## C[C@@H]1CCc2c1nc1c(c2NC(=O)N=S(N)(=O)c2nn(C(F)F)cc2F)CCC1 (stereo partly drawn) [Example 568, 1-(Difluoromethyl)-4-fluoro-N′-(((R)-3-methyl-1,2,3,5,6,7-hexahydrodicyclopenta[b,e]pyridin-8-yl)carbamoyl)-1H-pyrazole-3-sulfonimidamide]
[2]
  IC50: 0.04 to 0.2 µM

## CC(C)(O)c1ncc(S(N)(=O)=NC(=O)Nc2c3c(nc4c2CCC4=O)CCC3)s1 (stereo not drawn) [Compound 711]
Homo sapiens, THP-1, Table B2, numeric bounds, read-out: hTHP-1 IC50
  IC50: > 30 µM

## CCn1ccc([S@](N)(=O)=NC(=O)Nc2c(C)c(C(F)(F)F)nc3c2CCC3)n1 [Compound 731b]
[3]
  IC50: 0.2 to 1 µM

## CNS(=O)(=NC(=O)Nc1c2c(nc3c1CCC3)CCC2)c1ccc(CN(C)C)cc1 (single isomer, unassigned) [Compound 120b, (S) or (R)-4-((dimethylamino)methyl)-N′-((1,2,3,5,6,7-hexahydro-dicyclopenta[b,e]pryidin-8-yl)carbamoyl)-N-methylbenzene-sulfonimidamide]
Table B1, numeric bounds, read-out: Average IC50 of compounds in hTHP-1 assay: hTHP-1 IC50
  IC50: > 30 µM

## Cc1c(C2(F)CC2)nc2c(c1NC(=O)N=S(N)(=O)c1sc(C(C)(C)O)cc1F)CCC2 (single isomer, unassigned) [Example 685, (R) or (S)-3-fluoro-N′-((2-(1-fluorocyclopropyl)-3-methyl-6,7-dihydro-5H-cyclopenta [b]pyridin-4-yl)carbamoyl)-5-(2-hydroxypropan-2-yl) thiophene-2-sulfonimidamide]
[2]
  IC50: 0.2 to 1 µM

## Cc1c(C(F)(F)F)nc2c(c1NC(=O)N=S(N)(=O)c1nn(-c3ccccc3)cc1F)CCC2 (stereo not drawn) [Example 749, 4-Fluoro-N′-((3-methyl-2-(trifluoromethyl)-6,7-dihydro-5H-cyclopenta[b]pyridin-4-yl)carbamoyl)-1-phenyl-1H-pyrazole-3-sulfonimidamide]
[4]
  IC50: 1 to 5 µM

## CCn1ccc(S(N)(=O)=NC(=O)Nc2c(C)c(C(F)(F)F)nc3c2CCC3)n1 (stereo not drawn) [Example 634, 1-Ethyl-N′-((3-methyl-2-(trifluoromethyl)-6,7-dihydro-5H-cyclopenta[b]pyridin-4-yl)carbamoyl)-1H-pyrazole-3-sulfonimidamide]
[2]
  IC50: 1 to 5 µM

## CC(C)(O)c1sc(S(N)(=O)=NC(=O)Nc2c3c(nc4c2CCC4(C)C)CCC3)nc1CO (single isomer, unassigned) [Compound 642a, (S) or (R)-N′-((3,3-dimethyl-1,2,3,5,6,7-hexahydrodicyclopenta [b,e]pyridin-8-yl)carbamoyl)-4-(hydroxymethyl)-5-(2-hydroxypropan-2-yl)thiazole-2-sulfonimidamide]
[5]
  IC50: 5 to 30 µM

## CC1CCc2c1nc1c(c2NC(=O)N=S(N)(=O)c2cnn(C(C)C)c2)CCC1 (stereo not drawn) [Compound 171, 1-isopropyl-N′-((3-methyl-1,2,3,5,6,7-hexahydrodicyclopenta[b,e]pyridin-8-yl)carbamoyl)-1H-pyrazole-4-sulfonimidamide]
[6]
  IC50: 1 to 5 µM

## Cc1c(C2CC2)nc(C2CC2)c(C)c1NC(=O)N=S(N)(=O)c1cc(C(C)(C)O)cs1 (single isomer, unassigned) [Compound 612b, (R) or (S)-N′-((2,6-dicyclopropyl-3,5-dimethylpyridin-4-yl)carbamoyl)-4-(2-hydroxypropan-2-yl)thiophene-2-sulfonimidamide]
[3]
  IC50: 1 to 5 µM

## CC(C)(CO)c1ncc(S(N)(=O)=NC(=O)Nc2c3c(nc4c2CCC4(C)C)CCC3)s1 (stereo not drawn) [Compound 737]
[3]
  IC50: 0.2 to 1 µM

## CCc1c(C)nc2c(c1NC(=O)N=S(N)(=O)c1cnc(C(C)(C)O)s1)CCC2 (stereo not drawn) [Compound 117, N′-((3-ethyl-2-methyl-6,7-dihydro-5H-cyclopenta[b]pyridin-4-yl)carbamoyl)-2-(2-hydroxypropan-2-yl)thiazole-5-sulfonimidamide]
[6]
  IC50: 5 to 30 µM

## CCn1cc(F)c(S(N)(=O)=NC(=O)Nc2c3c(nc4c2CCC4(C)C)CCC3)n1 (single isomer, unassigned) [Example 715, (R) or (S)-N′-((3,3-dimethyl-1,2,3,5,6,7-hexahydrodicyclopenta[b,e]pyridin-8-yl)carbamoyl)-1-ethyl-4-fluoro-1H-pyrazole-3-sulfonimidamide]
[7]
  IC50: < 0.008 µM

## CCc1c(C(F)(F)F)nc2c(c1NC(=O)N=S(N)(=O)c1cc(C(C)(C)O)cs1)CCC2 (single isomer, unassigned) [Compound 698b, (R) or (S)-N′-((3-ethyl-2-(trifluoromethyl)-6,7-dihydro-5H-cyclopenta[b]pyridin-4-yl)carbamoyl)-4-(2-hydroxypropan-2-yl)thiophene-2-sulfonimidamide]
[5]
  IC50: 0.2 to 1 µM

## CC(C)c1c(C2CC2)nc2c(c1NC(=O)N=S(N)(=O)c1cc(C(C)(C)O)cs1)CCC2 (single isomer, unassigned) [Compound 667b, (R) or (S)-N′-((2-cyclopropyl-3-isopropyl-6,7-dihydro-5H-cyclopenta[b]pyridin-4-yl)carbamoyl)-4-(2-hydroxypropan-2-yl)thiophene-2-sulfonimidamide]
[5]
  IC50: 0.2 to 1 µM

## Cc1c(C(F)(F)F)nc2c(c1NC(=O)N=S(N)(=O)c1cnc(C(C)(C)O)s1)CCC2 (single isomer, unassigned) [Compound 661b, (S) or (R)-2-(2-Hydroxypropan-2-yl)-N′-((3-methyl-2-(trifluoromethyl)-6,7-dihydro-5H-cyclopenta[b]pyridin-4-yl)carbamoyl)thiazole-5-sulfonimidamide]
[5]
  IC50: 5 to 30 µM

## Cc1c(C(F)(F)F)nc2c(c1NC(=O)N=S(N)(=O)c1ccn(C(F)F)n1)CCC2 (single isomer, unassigned) [Compound 621a, (S) or (R)-1-(Difluoromethyl)-N′-((3-methyl-2-(trifluoromethyl)-6,7-dihydro-5H-cyclopenta[b]pyridin-4-yl)carbamoyl)-1H-pyrazole-3-sulfonimidamide]
[5]
  IC50: 5 to 30 µM

## Cc1c(C(F)F)nc2c(c1NC(=O)N=S(N)(=O)c1cnc(C(C)(C)O)s1)CCC2 (single isomer, unassigned) [Compound 647a, (R) or (S)-N′-((2-(difluoromethyl)-3-methyl-6,7-dihydro-5H-cyclopenta[b]pyridin-4-yl)carbamoyl)-2-(2-hydroxypropan-2-yl)thiazole-5-sulfonimidamide]
[3]
  IC50: 1 to 5 µM

## Cc1c(C(F)(F)F)nc2c(c1NC(=O)N=S(N)(=O)c1cc(CO)n(C(C)C)n1)CCC2 (stereo not drawn) [Example 585, 5-(Hydroxymethyl)-1-isopropyl-N′-((3-methyl-2-(trifluoromethyl)-6,7-dihydro-5H-cyclopenta[b]pyridin-4-yl)carbamoyl)-1H-pyrazole-3-sulfonimidamide]
[2]
  IC50: 1 to 5 µM

## Cc1nc2c(c(NC(=O)N=S(N)(=O)c3cc(C(C)(C)O)cs3)c1C1CC1)CCC2 (single isomer, unassigned) [Compound 623b, (S) or (R)-N′-((3-cyclopropyl-2-methyl-6,7-dihydro-5H-cyclopenta[b]pyridin-4-yl)carbamoyl)-4-(2-hydroxypropan-2-yl)thiophene-2-sulfonimidamide]
[5]
  IC50: 5 to 30 µM

## CC(C)(O)c1csc(S(N)(=O)=NC(=O)Nc2c3c(nc(C4CC4)c2C2CC2)CCC3)c1 (stereo not drawn) [Compound 670, N′-((2,3-dicyclopropyl-6,7-dihydro-5H-cyclopenta[b]pyridin-4-yl)carbamoyl)-4-(2-hydroxypropan-2-yl)thiophene-2-sulfonimidamide]
[3]
  IC50: 0.2 to 1 µM

## C[C@H]1CCc2c1nc1c(c2NC(=O)N=S(N)(=O)c2cnc([C@@](C)(O)CO)s2)CCC1 (single isomer, unassigned) [Example 729]
[4]
  IC50: 1 to 5 µM

## NS(=O)(=NC(=O)Nc1c2c(nc3c1CCC31CC1)CCC2)c1ccn(CCO)n1 (single isomer, unassigned) [Example 647, (R) or (S)-1-(2-hydroxyethyl)-N′-((1′,5′,6′,7′-tetrahydro-2′H-spiro[cyclopropane-1,3′-dicyclopenta[b,e]pyridin]-8′-yl)carbamoyl)-1H-pyrazole-3-sulfonimidamide]
[7]
  IC50: 0.2 to 1 µM

## CC(C)(O)c1ccc(S(N)(=O)=NC(=O)Nc2c3c(nc4c2CCC4)CCC3)cn1 (single isomer, unassigned) [Compound 156a, (S) or (R)-N′-((1,2,3,5,6,7-hexahydrodicyclo-penta[b,e]pyridin-8-yl)carbamoyl)-6-(2-hydroxypropan-2-yl)pyridine-3-sulfonimidamide]
[1]
  IC50: > 30 µM

## CC(C)n1nc(S(N)(=O)=NC(=O)Nc2c3c(nc4c2CCC42CC2)CCC3)cc1CO (stereo not drawn) [Example 595, 5-(Hydroxymethyl)-1-isopropyl-N′-((1′,5′,6′,7′-tetrahydro-2′H-spiro[cyclopropane-1,3′-dicyclopenta[b,e]pyridin]-8′-yl)carbamoyl)-1H-pyrazole-3-sulfonimidamide]
[2]
  IC50: 1 to 5 µM
